Test results: article PMC5218480 (PLoS ONE, 2017)

System: MV-4-11 cells
Experiment: Gene expression microarray analysis (Affymetrix PrimeView) and GSEA
Format: cell-based, human
Parameters: RFU PODN (11730768_x_at) / Fold change /veh PODN (11730768_x_at) / RFU LINC00158 (11744669_a_at) / Fold change /veh LINC00158 (11744669_a_at) / RFU DUSP10 (11751237_a_at) / Fold change /veh DUSP10 (11751237_a_at) / RFU ID3 (11757404_x_at) / Fold change /veh ID3 (11757404_x_at) / RFU PLEKHG5 (11737974_s_at) / Fold change /veh PLEKHG5 (11737974_s_at) / RFU LRRC4B (11730491_at) / Fold change /veh LRRC4B (11730491_at) / RFU GIMAP4 (11747438_a_at) / Fold change /veh GIMAP4 (11747438_a_at) / RFU KRT8 (11758183_x_at) / Fold change /veh KRT8 (11758183_x_at) / RFU CNN1 (11734310_a_at) / Fold change /veh CNN1 (11734310_a_at) / RFU VPS37D (11726825_at) / Fold change /veh VPS37D (11726825_at) / RFU C10orf10 (11716522_x_at) / Fold change /veh C10orf10 (11716522_x_at) / RFU KIR2DL2 /// KIR2DL4 /// KIR2DL5A /// KIR2DL5B /// KIR2DS1 /// KIR2DS2 /// KIR2DS3 /// KIR2DS4 /// KIR3DL3 /// KIR3DL3 /// KIR3DS1 (11738374_at) / Fold change /veh KIR2DL2 /// KIR2DL4 /// KIR2DL5A /// KIR2DL5B /// KIR2DS1 /// KIR2DS2 /// KIR2DS3 /// KIR2DS4 /// KIR3DL3 /// KIR3DL3 /// KIR3DS1 (11738374_at) / RFU C1QL1 (11718748_at) / Fold change /veh C1QL1 (11718748_at) / RFU TMPRSS4 (11747572_a_at) / Fold change /veh TMPRSS4 (11747572_a_at) / RFU HAMP (11756126_x_at) / Fold change /veh HAMP (11756126_x_at) / RFU RNFT2 (11725882_a_at) / Fold change /veh RNFT2 (11725882_a_at) / RFU NR4A2 (11747474_a_at) / Fold change /veh NR4A2 (11747474_a_at) / RFU ABCC12 (11746883_a_at) / Fold change /veh ABCC12 (11746883_a_at) / RFU TMEM136 (11760407_x_at) / Fold change /veh TMEM136 (11760407_x_at) / RFU CLDN22 /// WWC2 (11732394_at) / Fold change /veh CLDN22 /// WWC2 (11732394_at) / RFU HLA-DPB1 (11760878_x_at) / Fold change /veh HLA-DPB1 (11760878_x_at) / RFU SPINT1 (11716480_a_at) / Fold change /veh SPINT1 (11716480_a_at) / RFU GAP43 (11754022_s_at) / Fold change /veh GAP43 (11754022_s_at) / RFU A4GNT (11735810_at) / Fold change /veh A4GNT (11735810_at) / RFU PRB3 (11715151_x_at) / Fold change /veh PRB3 (11715151_x_at) / RFU TUBB4B (11761932_at) / Fold change /veh TUBB4B (11761932_at) / RFU CAPN14 (11732068_a_at) / Fold change /veh CAPN14 (11732068_a_at) / RFU TMCC2 (11721928_a_at) / Fold change /veh TMCC2 (11721928_a_at) / RFU IRGQ (11745062_a_at) / Fold change /veh IRGQ (11745062_a_at) / RFU FAM174B (11720279_a_at) / Fold change /veh FAM174B (11720279_a_at) / RFU TMPRSS4 (11748680_a_at) / Fold change /veh TMPRSS4 (11748680_a_at) / RFU FAM212B (11763350_a_at) / Fold change /veh FAM212B (11763350_a_at) / RFU PLEKHG5 (11743358_a_at) / Fold change /veh PLEKHG5 (11743358_a_at) / RFU ZSCAN30 (11745921_a_at) / Fold change /veh ZSCAN30 (11745921_a_at) / RFU CMKLR1 (11741424_a_at) / Fold change /veh CMKLR1 (11741424_a_at) / RFU LOC101060620 /// MAPK8IP1 (11723275_at) / Fold change /veh LOC101060620 /// MAPK8IP1 (11723275_at) / RFU SPTSSB (11747773_x_at) / Fold change /veh SPTSSB (11747773_x_at) / RFU PRSS12 (11739890_at) / Fold change /veh PRSS12 (11739890_at) / RFU BIN1 (11741810_x_at) / Fold change /veh BIN1 (11741810_x_at) / RFU WNT11 (11732464_a_at) / Fold change /veh WNT11 (11732464_a_at) / RFU C10orf10 (11716521_a_at) / Fold change /veh C10orf10 (11716521_a_at) / RFU C5orf56 (11738089_at) / Fold change /veh C5orf56 (11738089_at) / RFU CYB561 (11721691_x_at) / Fold change /veh CYB561 (11721691_x_at) / RFU ANKRD19P (11752326_a_at) / Fold change /veh ANKRD19P (11752326_a_at) / RFU OR2T12 /// OR2T33 /// OR2T8 (11738714_s_at) / Fold change /veh OR2T12 /// OR2T33 /// OR2T8 (11738714_s_at) / RFU VCAN (11748164_a_at) / Fold change /veh VCAN (11748164_a_at) / RFU JSRP1 (11732532_at) / Fold change /veh JSRP1 (11732532_at) / RFU KRTAP10-11 (11738290_x_at) / Fold change /veh KRTAP10-11 (11738290_x_at) / RFU MYO3A (11730013_a_at) / Fold change /veh MYO3A (11730013_a_at) / RFU EBF3 (11725865_a_at) / Fold change /veh EBF3 (11725865_a_at) / RFU CAMK2N1 (11719241_x_at) / Fold change /veh CAMK2N1 (11719241_x_at) / RFU C5orf56 (11738088_a_at) / Fold change /veh C5orf56 (11738088_a_at) / RFU OLFML3 (11715873_a_at) / Fold change /veh OLFML3 (11715873_a_at) / RFU LOC100653217 /// NTM (11731650_a_at) / Fold change /veh LOC100653217 /// NTM (11731650_a_at) / RFU MAPK11 (11762145_a_at) / Fold change /veh MAPK11 (11762145_a_at) / RFU FIZ1 (11724087_x_at) / Fold change /veh FIZ1 (11724087_x_at) / RFU OASL (11726364_x_at) / Fold change /veh OASL (11726364_x_at) / RFU SOX15 (11748057_x_at) / Fold change /veh SOX15 (11748057_x_at) / RFU CD79A (11719716_a_at) / Fold change /veh CD79A (11719716_a_at) / RFU HIST1H1D (11736915_at) / Fold change /veh HIST1H1D (11736915_at) / RFU CASKIN2 (11723855_a_at) / Fold change /veh CASKIN2 (11723855_a_at) / RFU LOC730098 (11760151_x_at) / Fold change /veh LOC730098 (11760151_x_at) / RFU OR4N2 (11742367_at) / Fold change /veh OR4N2 (11742367_at) / RFU PRRT2 (11749266_a_at) / Fold change /veh PRRT2 (11749266_a_at) / RFU SNX32 (11753110_a_at) / Fold change /veh SNX32 (11753110_a_at) / RFU CDHR5 (11726645_a_at) / Fold change /veh CDHR5 (11726645_a_at) / RFU RCAN1 (11760418_a_at) / Fold change /veh RCAN1 (11760418_a_at) / RFU FAM167A (11723789_a_at) / Fold change /veh FAM167A (11723789_a_at) / RFU FAM26E (11764081_at) / Fold change /veh FAM26E (11764081_at) / RFU ISYNA1 (11749810_s_at) / Fold change /veh ISYNA1 (11749810_s_at) / RFU ACY1 (11761880_at) / Fold change /veh ACY1 (11761880_at) / RFU 11764098_at / Fold change /veh 11764098_at / RFU SAMD14 (11745864_x_at) / Fold change /veh SAMD14 (11745864_x_at) / RFU NPB (11741838_a_at) / Fold change /veh NPB (11741838_a_at) / RFU TMPRSS6 (11731388_a_at) / Fold change /veh TMPRSS6 (11731388_a_at) / RFU KRTAP10-2 (11738614_at) / Fold change /veh KRTAP10-2 (11738614_at) / RFU ARHGAP8 /// PRR5-ARHGAP8 (11727945_x_at) / Fold change /veh ARHGAP8 /// PRR5-ARHGAP8 (11727945_x_at) / RFU KRTAP5-7 /// NADSYN1 (11734609_at) / Fold change /veh KRTAP5-7 /// NADSYN1 (11734609_at) / RFU RASL12 (11751679_a_at) / Fold change /veh RASL12 (11751679_a_at) / RFU CDKN2B (11736163_a_at) / Fold change /veh CDKN2B (11736163_a_at) / RFU PRF1 (11729649_at) / Fold change /veh PRF1 (11729649_at) / RFU, ZNF638 /// ZNF638-IT1 / Fold change vs veh, ZNF638 /// ZNF638-IT1 / RFU, PANK3 / Fold change vs veh, PANK3 / RFU, SH3YL1 / Fold change vs veh, SH3YL1 / RFU, ZEB2 / Fold change vs veh, ZEB2 / RFU, NRIP1 / Fold change vs veh, NRIP1 / RFU, PTTG1IP / Fold change vs veh, PTTG1IP / RFU, CAPN2 / Fold change vs veh, CAPN2 / RFU, MED14 / Fold change vs veh, MED14 / RFU, SNORA58 / Fold change vs veh, SNORA58 / RFU, C1orf63 / Fold change vs veh, C1orf63 / RFU, LRRFIP1 / Fold change vs veh, LRRFIP1 / RFU, NDUFAF7 / Fold change vs veh, NDUFAF7 / RFU, SLC12A2 / Fold change vs veh, SLC12A2 / RFU, IBTK / Fold change vs veh, IBTK / RFU, ESF1 / Fold change vs veh, ESF1 / Fold change vs veh, TMEM50B / RFU, TAOK1 / Fold change vs veh, TAOK1 / RFU, ACBD3 / Fold change vs veh, ACBD3 / RFU, TMA16 / Fold change vs veh, TMA16 / RFU, RWDD3 / Fold change vs veh, RWDD3 / RFU, BCAT1 / Fold change vs veh, BCAT1 / RFU, EDEM3 / Fold change vs veh, EDEM3 / RFU, TMEM33 / Fold change vs veh, TMEM33 / RFU, WDR75 / Fold change vs veh, WDR75 / RFU, AHCTF1 / Fold change vs veh, AHCTF1 / RFU, TFRC / Fold change vs veh, TFRC / RFU, ZDHHC17 / Fold change vs veh, ZDHHC17 / RFU, NOM1 / Fold change vs veh, NOM1 / RFU, ARL8B / Fold change vs veh, ARL8B / RFU, ZBTB11 / Fold change vs veh, ZBTB11 / RFU, TAMM41 / Fold change vs veh, TAMM41 / RFU, KIAA1704 /// LOC100996395 / Fold change vs veh, KIAA1704 /// LOC100996395 / RFU, ING1 / Fold change vs veh, ING1 / RFU, TRMT61B / Fold change vs veh, TRMT61B / RFU, FUBP3 / Fold change vs veh, FUBP3 / RFU, TP53 / Fold change vs veh, TP53 / RFU, TNKS2 / Fold change vs veh, TNKS2 / RFU, ZFP14 / Fold change vs veh, ZFP14 / RFU, ACTR2 / Fold change vs veh, ACTR2 / RFU, PPP3R1 / Fold change vs veh, PPP3R1 / RFU, PIK3R1 / Fold change vs veh, PIK3R1 / RFU, HNRNPA1 / Fold change vs veh, HNRNPA1 / RFU, RNF170 / Fold change vs veh, RNF170 / RFU, ZNF28 / Fold change vs veh, ZNF28 / RFU, RNGTT / Fold change vs veh, RNGTT / RFU, OGT / Fold change vs veh, OGT / RFU, BRD1 / Fold change vs veh, BRD1 / RFU, MARS / Fold change vs veh, MARS / RFU, ZNF655 / Fold change vs veh, ZNF655 / RFU, FAHD1 / Fold change vs veh, FAHD1 / RFU, BDP1 / Fold change vs veh, BDP1 / RFU, LRRCC1 / Fold change vs veh, LRRCC1 / RFU, ARID1A / Fold change vs veh, ARID1A / RFU, ZNF146 / Fold change vs veh, ZNF146 / RFU, ZNF330 / Fold change vs veh, ZNF330 / RFU, GPN3 / Fold change vs veh, GPN3 / RFU, C9orf123 / Fold change vs veh, C9orf123 / RFU, N4BP2L2 / Fold change vs veh, N4BP2L2 / RFU, ARFIP1 / Fold change vs veh, ARFIP1 / RFU, FAM179B / Fold change vs veh, FAM179B / RFU, BCL10 / Fold change vs veh, BCL10 / RFU, UHRF1BP1L / Fold change vs veh, UHRF1BP1L / RFU, BET1 / Fold change vs veh, BET1 / RFU, CNOT2 / Fold change vs veh, CNOT2 / RFU, ZNF268 / Fold change vs veh, ZNF268 / Fold change vs veh, ZNF507 / RFU, DGCR2 / Fold change vs veh, DGCR2 / RFU, WDSUB1 / Fold change vs veh, WDSUB1 / Fold change vs veh, HSP90B1 /// MIR3652 / RFU, ADSS / Fold change vs veh, ADSS / RFU, GK / Fold change vs veh, GK / RFU, ZNF148 / Fold change vs veh, ZNF148 / RFU, TAF9 / Fold change vs veh, TAF9 / RFU, SLC1A5 / Fold change vs veh, SLC1A5 / RFU, SLMO2 / Fold change vs veh, SLMO2 / RFU, ABCC4 / Fold change vs veh, ABCC4 / RFU, LOC101060439 /// RAP1B / Fold change vs veh, LOC101060439 /// RAP1B / RFU, RFX7 / Fold change vs veh, RFX7 / RFU, GTPBP10 / Fold change vs veh, GTPBP10 / RFU, CNEP1R1 / Fold change vs veh, CNEP1R1 / RFU, BIVM-ERCC5 /// ERCC5 / Fold change vs veh, BIVM-ERCC5 /// ERCC5 / RFU, ILF3 / Fold change vs veh, ILF3 / RFU 11762660_at / Fold change /veh 11762660_at / RFU VCAN (11757783_s_at) / Fold change /veh VCAN (11757783_s_at) / RFU DDX43 (11728927_at) / Fold change /veh DDX43 (11728927_at) / RFU KRT8 (11758188_x_at) / Fold change /veh KRT8 (11758188_x_at) / RFU NKD1 (11759106_at) / Fold change /veh NKD1 (11759106_at) / RFU SRD5A1 (11742802_a_at) / Fold change /veh SRD5A1 (11742802_a_at) / RFU TPSAB1 /// TPSB2 (11721975_s_at) / Fold change /veh TPSAB1 /// TPSB2 (11721975_s_at) / RFU GSTM3 (11746129_a_at) / Fold change /veh GSTM3 (11746129_a_at) / RFU IL23R (11737362_x_at) / Fold change /veh IL23R (11737362_x_at) / RFU TMEM51 (11727254_a_at) / Fold change /veh TMEM51 (11727254_a_at) / RFU PIWIL2 (11732686_x_at) / Fold change /veh PIWIL2 (11732686_x_at) / RFU ORM1 (11744905_x_at) / Fold change /veh ORM1 (11744905_x_at) / RFU CCDC152 (11743942_at) / Fold change /veh CCDC152 (11743942_at) / RFU ECM1 (11717891_a_at) / Fold change /veh ECM1 (11717891_a_at) / RFU IL23R (11748794_a_at) / Fold change /veh IL23R (11748794_a_at) / RFU TNFAIP8L3 (11732012_x_at) / Fold change /veh TNFAIP8L3 (11732012_x_at) / RFU MBOAT4 (11741988_at) / Fold change /veh MBOAT4 (11741988_at) / RFU 11764193_at / Fold change /veh 11764193_at / RFU TMEM53 (11763286_at) / Fold change /veh TMEM53 (11763286_at) / RFU MAGEB2 (11727129_at) / Fold change /veh MAGEB2 (11727129_at) / RFU TMEM200A (11744735_a_at) / Fold change /veh TMEM200A (11744735_a_at) / RFU CCDC152 (11751479_a_at) / Fold change /veh CCDC152 (11751479_a_at) / RFU FAM211A (11726209_a_at) / Fold change /veh FAM211A (11726209_a_at) / RFU RGS16 (11746705_a_at) / Fold change /veh RGS16 (11746705_a_at) / RFU VCAN (11755009_s_at) / Fold change /veh VCAN (11755009_s_at) / RFU RHOB (11743442_s_at) / Fold change /veh RHOB (11743442_s_at) / RFU RGS16 (11720943_a_at) / Fold change /veh RGS16 (11720943_a_at) / RFU RGS16 (11720944_at) / Fold change /veh RGS16 (11720944_at) / RFU, VPS4B / Fold change vs veh, VPS4B / RFU, CREB1 / Fold change vs veh, CREB1 / RFU, DNAJC13 / Fold change vs veh, DNAJC13 / RFU, GNAQ / Fold change vs veh, GNAQ / RFU, CDK5R1 / Fold change vs veh, CDK5R1 / RFU, ZRANB3 / Fold change vs veh, ZRANB3 / RFU, CUL4A / Fold change vs veh, CUL4A / RFU, CCNY / Fold change vs veh, CCNY / RFU, UFL1 / Fold change vs veh, UFL1 / RFU, COG3 / Fold change vs veh, COG3 / RFU, DIAPH2 / Fold change vs veh, DIAPH2 / RFU, SKA2 / Fold change vs veh, SKA2 / RFU, AFF3 / Fold change vs veh, AFF3 / RFU, LMF1 / Fold change vs veh, LMF1 / RFU, IPO11 / Fold change vs veh, IPO11 / RFU, DFFB / Fold change vs veh, DFFB / RFU, FOXP1 / Fold change vs veh, FOXP1 / RFU, CARD8 / Fold change vs veh, CARD8 / RFU, STRN3 / Fold change vs veh, STRN3 / RFU, ADK / Fold change vs veh, ADK / RFU, RASSF2 / Fold change vs veh, RASSF2 / RFU, WIPF1 / Fold change vs veh, WIPF1 / RFU, LARP1B / Fold change vs veh, LARP1B / RFU, RASA1 / Fold change vs veh, RASA1 / RFU, RB1 / Fold change vs veh, RB1 / RFU, PPFIA1 / Fold change vs veh, PPFIA1 / RFU, MAT2A / Fold change vs veh, MAT2A / RFU, CCT5 / Fold change vs veh, CCT5 / RFU, WDR92 / Fold change vs veh, WDR92 / RFU, CUX1 / Fold change vs veh, CUX1 / RFU, TTC7A / Fold change vs veh, TTC7A / RFU, TMEM135 / Fold change vs veh, TMEM135 / RFU, DEPTOR / Fold change vs veh, DEPTOR / RFU, CPM / Fold change vs veh, CPM / RFU, DNAJB6 / Fold change vs veh, DNAJB6 / RFU, CACNA2D3 / Fold change vs veh, CACNA2D3 / RFU, DTX4 / Fold change vs veh, DTX4 / RFU, TFCP2 / Fold change vs veh, TFCP2 / RFU, GMCL1 /// GMCL1P1 / Fold change vs veh, GMCL1 /// GMCL1P1 / RFU, AEBP2 / Fold change vs veh, AEBP2 / RFU, SNHG1 /// SNORD22 /// SNORD25 /// SNORD26 /// SNORD27 /// SNORD28 /// SNORD29 /// SNORD31 / Fold change vs veh, SNHG1 /// SNORD22 /// SNORD25 /// SNORD26 /// SNORD27 /// SNORD28 /// SNORD29 /// SNORD31 / Fold change (Aza/veh), C12orf56 (ProbeSet 11735607_a_at) / Fold change (ACY-1035/veh), C12orf56 (ProbeSet 11735607_a_at) / Fold change (Aza/veh), FGFR1OP (ProbeSet 11751329_s_at) / Fold change (ACY-1035/veh), FGFR1OP (ProbeSet 11751329_s_at) / Fold change (Aza/veh), VPS36 (ProbeSet 11739960_a_at) / Fold change (ACY-1035/veh), VPS36 (ProbeSet 11739960_a_at) / RFU SYPL1 (11715823_x_at) / Fold change /veh SYPL1 (11715823_x_at) / RFU IGFBP7 (11715501_s_at) / Fold change /veh IGFBP7 (11715501_s_at) / RFU REEP3 (11722064_at) / Fold change /veh REEP3 (11722064_at) / RFU IGLL1 (11728026_x_at) / Fold change /veh IGLL1 (11728026_x_at): dose or concentration left out as unconfirmed
Conditions: ProbeSet 11723944_a_at; LIST B

Nc1ncn([C@@H]2O[C@H](CO)[C@@H](O)[C@H]2O)c(=O)n1 [azacitidine]
RFU, PTTG1IP: 678.15 RFU
